The text below walks through data of article PMC9696309 (Metabolites, 2022).

Like-named read-outs stand apart in the source and are kept apart here.

A short description of series [1]: in vitro. The note with it: African green monkey.
In series [2] the test system is SARS-CoV-2. Nature of the series: microbe, parasite or virus in culture. The format is cell-based.
The subject of series [3] is severe acute RS-CoV 3CL^pr°. The note with it: inhibition of severe acute RS-CoV 3CL^pr° activity; cited from earlier work.

With `COc1c(O)cc2oc(-c3ccc(O)cc3)c(OC)c(=O)c2c1O` [Compound 7, 5,7,4’-trihydroxy-3,6-dimethoxy flavone], the CC50 in series [1] amounted to 1070 µM. Also, the IC50 in series [2] and in series [2] (Severe acute respiratory syndrome coronavirus 2) was 664 µM throughout.

In series [1], `CC[C@H](CC[C@@H](C)[C@H]1CC[C@H]2[C@@H]3CC=C4C[C@@H](O[C@@H]5O[C@H](CO)[C@@H](O)[C@H](O)[C@H]5O)CC[C@]4(C)[C@H]3CC[C@]12C)C(C)C` [Compound 9, daucosterol] had a CC50 of 2550 µM. Consider `O=c1cc(-c2ccc(O)c(O)c2)oc2cc(O)cc(O)c12` [luteolin], for which the half-inhibitory concentration (IC50) – broadly, the concentration that gives 50% inhibition – in series [3] was 20.2 µM. For the compound `O=c1cc(-c2ccc(O)cc2)oc2cc(O)cc(O)c12` [apigenin], in series [3], the IC50 is 281 µM. On to `COc1ccc(-c2coc3cc(O)ccc3c2=O)cc1` [Compound 3, formononetin], for which the CC50 in series [1] is 1720 µM.
